Data on 7 compounds can be found in patent US20230310542A1, “EPIGENETIC MODIFIERS TO TREAT RETINAL DEGENERATIONS” (priority 2022, published 2023).

The subject of one test is RGC. The conditions noted are these: previous study; cited from earlier work.
The next test deals with RP. The conditions noted are these: previous studies, cited from earlier work; for protective effect on RP: non-selective HDAC inhibitors.
For another test, the system named is rd1 mice. The conditions noted are these: previous studies; cited from earlier work.
The test system of the next test is rd10 mice. The test is described as follows: Rod photoreceptor preservation in rd10 mice (photoreceptor rows in ONL, immunofluorescence). Format: in vivo, mouse. The procedure:
(§1) All inhibitors were diluted in 0.9% bacteriostatic sodium chloride (saline).
(§2) Retinas were fixed in 4% paraformaldehyde overnight at 4° C., washed in PBS, incubated in 5% sucrose/PBS for 30 min and then cryopreserved in 20% sucrose/PBS overnight at 4° C. Retinas were embedded in 2:1 mix of 20% sucrose and OCT (Sakura Finetek Torrance, CA) and stored at −80° C. Blocks with tissue samples were sectioned to 7-10 μm on a Cryostat Microtome HM550 (Thermo Fisher Scientific) and stored at −20° C. Antigen retrieval was performed by incubating the slides in 10 mM sodium citrate pH 6 for 30 min at 80° C. Double labeling immunohistochemistry was performed using fluorescent Alexa Fluor-conjugated secondary antibodies diluted 1:800 (Invitrogen, Carlsbad, California). Primary antibodies were diluted as follow: anti-H3K4me2 1:600, anti-H3K9me2 1:600, anti-RHO 1:50, anti-OPN1SW 1:400, anti-GFAP 1:1000, anti-IBA1 1:450 (AifI gene). […] The acquisition parameters were maintained constant for each set of experiments. Fluorescence intensity was assessed using ImageJ software (Bethesda, MD).

The subject of the next test is rod nuclei. To be noted: WT + TCP, PN24. As to the method: as §2
The number of heterochromatin foci in rod nuclei was calculated to estimate the level of rod photoreceptor maturation in retinas of animals treated with LSD1 inhibitors (FIG. 10B).

The next test concerns rd10 mice retina. The test is described as follows: RT-PCR retinal gene expression, rd10 mice. It counts as in vivo, mouse. As to the method: (§3) Whole retinas were isolated from animals by removing the sclera and most of the retinal pigmented epithelium (RPE) layer under PBS. The right eye retinas from each animal were taken for RNA extraction, cDNA preparation and RT-PCR. Immediately after isolation, tissue was flash frozen in liquid nitrogen and stored at −80° C. Left eye retinas from each animal were subjected to fixation, cryopreservation, sectioning, and immunofluorescence staining. RNA extraction and purification followed the manufacturer's protocol from RNeasy Mini Kit and RNA shredder (Qiagen). […] Primers purchased from Integrated DNA Technologies (IDT). For quantitative real-time PCR we used 2× iQ-SYBR Green PCR supermix from Bio-Rad. Samples in triplicate were run on an iQ5 Multicolor Real Time PCR Detection System (Bio-Rad). The relative expression level for each gene was calculated by the 2-ΔΔCt method and normalized to GAPDH.

In the next test the test system is GFAP, IBA1. The test is described as follows: Immunofluorescence labeling of GFAP and IBA1 in retina sections. It counts as in vivo, mouse. To be noted: rd10, treated PN9 till PN24; levels remained above WT. As to the method: Fluorescence intensity was assessed using ImageJ software (Bethesda, MD).
Another test deals with rd10. The conditions noted are these: TCP PN9 till PN24. As to the method:
Retinas were fixed in 4% paraformaldehyde overnight at 4° C., washed in PBS, incubated in 5% sucrose/PBS for 30 min and then cryopreserved in 20% sucrose/PBS overnight at 4° C. Retinas were embedded in 2:1 mix of 20% sucrose and OCT (Sakura Finetek Torrance, CA) and stored at −80° C. Blocks with tissue samples were sectioned to 7-10 μm on a Cryostat Microtome HM550 (Thermo Fisher Scientific) and stored at −20° C. TUNEL assay was carried out using the In situ Cell death detection kit, Fluorescein from Roche (Germany) according to manufacturer's instruction.

In another test the test system is H3K4me2, H3K9me2. The test is described as follows: Anti-H3K4me2 and anti-H3K9me2 Western blot of WT retina. It counts as in vivo, mouse. The conditions noted are these: WT mice treated PN9 till PN24. As to the method:
Both retinas from one animal were flash frozen together in liquid nitrogen and stored at −80° C. Samples for SDS-PAGE were prepared by resuspended retinas in 50 μl PBS. Laemmli sample buffer was added, samples were boiled for 10 min, resolved on Criterion TGX Precast Gel AnyKD (Bio-Rad), transferred to nitrocellulose membrane, and immunoblotted with antibodies anti-H3K9me2 or anti-H3K4me2 diluted 1:5000; anti-ACTB diluted 1:10000; anti-PDE6B (1:500). Secondary goat anti-rabbit/mouse HRP (Jackson Immuno-Research Laboratory, West Grove, PA) was diluted 1:5000. An ECL western blot detection system (Thermo Fisher Scientific) was used to visualize the bound of the primary antibody.

A further test deals with WT mice. The conditions noted are these: TCP PN9 till PN24. As to the method:
as §1, §2

The next test deals with WT mice retina. In words: RT-PCR retinal gene expression, WT mice. Format: in vivo, mouse. As to the method:
as §3

Take `Nc1cc(F)ccc1NC(=O)/C=C/c1cnn(C/C=C/c2ccccc2)c1` [RGFP966]: in the test with RGC, the RGC death entry is given as “protected against RGC death”.
In the case of `CCCC(=O)[O-].[Na+]` [sodium butyrate], in the test on RP, the “protective effect on RP” value is given as “some protective effect”.
For `Nc1nccc2c1ncn2[C@@H]1C=C(CO)[C@@H](O)[C@H]1O` [DZNep, 3-deazaneplanocin A], the “retinal degeneration / photoreceptor loss in rd1 mouse” value in the test on rd1 mice is listed as “delays in retinal degeneration”.
As for `C/C=C1\NC(=O)[C@H]2CSSCC/C=C/[C@H](CC(=O)N[C@H](C(C)C)C(=O)N2)OC(=O)[C@H](C(C)C)NC1=O` [romidepsin], in the test with rd10 mice (romidepsin 0.2 mg/kg i.p. daily PN9 till PN24, saline control 2-3 rows), the “rows of photoreceptor remaining in the ONL at PN24” value was 8 rows.
As to `CC(/C=C/C(=O)NO)=C\[C@@H](C)C(=O)c1ccc(N(C)C)cc1` [TSA], the “protective effect on RP” value in the test on RP is given as “some protective effect”.
For the compound `N[C@@H]1C[C@H]1c1ccccc1` (relative stereo) [TCP, trans-2-Phenylcyclopropylamine], the “rod nuclei with 3 foci” value in the test on rod nuclei (WT saline 2%) turned out to be 7%. For the same compound, in the test with rod nuclei (WT saline 43%), the “rod nuclei with two foci” value is given as 51%. Further, the “rod nuclei with one focus” value in the test with rod nuclei (WT saline 55%) is 42%. Also, in the test with rd10 mice retina (treated PN9 till PN24, assayed PN24, vs saline), the “expression of rod photoreceptor genes relative to GAPDH” value was “increased expression of almost all rod genes”. Moreover, the “expression of cone genes Thrb or Gnat2” value in the test on rd10 mice retina (treated PN9 till PN24 vs saline) is “slightly up-regulated”. In addition, the “IBA1 labeling (microglia)” value with GFAP, IBA1 is recorded as “decreased”. For the same compound, in the test on rd10, the “dying cells by TUNEL staining vs control” value is listed as “no significant difference”. In the test with H3K4me2, H3K9me2, the “global levels of H3K4me2” value is on record as “did not change significantly” and the “global levels of H3K9me2” value is given as “No changes”. For the same compound, in the test on WT mice, the ONL thickness entry is given as “significantly increased” and the “number of rows of rods” value is given as “did not change”. Moreover, the “rows of photoreceptors remaining in the ONL at PN24” value in the test on rd10 mice (TCP 10 mg/kg i.p. daily PN9 till PN24) is 7 rows. Besides, the “expression of rod photoreceptor genes” value in the test on WT mice retina (WT mice treated PN9 till PN24) was “no changes”. Moreover, in the test with WT mice retina (WT retinas, treated PN9 till PN24), the “expression of transcription factors of retina development and maturation” value was “slightly increased expression”.
With `CCCC(CCC)C(=O)O` [VPA], in the test with RP, the “protective effect on RP” value was “some protective effect” and the “outcome as therapeutic agent for retinal degeneration” value was “mixed results”.
